Results on 13 compounds are retold here after patent US12459951B2, “Compounds that interact with RAS superfamily proteins for treatment of cancers, inflammatory diseases, rasopathies, and fibrotic disease” (SHY Therapeutics, LLC, priority 2022, dated 2025).

Where a name gives a salt, the structure may show the parent alone. Read-outs that look alike come from different tables or passages of the source.

In one test the test system is Akt phosphorylation. Kind of test: Akt Phosphorylation Assay (western blot), Panc-1. The class given is cell-based, human. To be noted: at 10 μM, * = activation. The procedure, abridged: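 Panc-1 (KRas G12D) cells were treated with compound at 10 μM final (0.3% DMSO) for 6 h at 37 °C, or with serial dilutions for IC50. Cells were either serum-starved overnight in 0.5% FBS and then stimulated with 1.5 ng/ml EGF for 15 min, or kept in 10% FBS without stimulation. Akt Ser473 phosphorylation in lysates was read by western blot.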

For test [1], the system named is MiaPaca-2 (expressing KRAS G12C mutant). The experiment in a line: Proliferation Assay (Cell Viability Assay). In kind it is cell-based. Conditions: Homo sapiens, MIA PaCa-2. The procedure, abridged: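 MiaPaca-2 cells (KRAS G12C) were grown in DMEM-high glucose with 10% FBS, seeded at 2000–5000 cells/well and cultured overnight. Compounds were added at 10 μM final, or as serial dilutions for IC50, in 0.3% DMSO/10% FBS for 2–4 days at 37 °C, 5% CO2. Viability was measured with CellTiter 96 Aqueous One and % inhibition calculated.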

Setting [2] is: read-out: Proliferation in MiaPaca-2: IC50.

Take `COc1cccnc1Nc1nc(-c2nccn2C)nn2cc(-c3ccn(C(C)C)n3)c(C)c12` [Compound 89, 6-(1-Isopropyl-1H-pyrazol-3-yl)-N-(3-methoxypyridin-2-yl)-5-methyl-2-(1-methyl-1H-imidazol-2-yl)pyrrolo[2,1-f][1,2,4]triazin-4-amine]: the “% inh of Akt phosphorylation in Panc-1” value in the test with Akt phosphorylation was “D* (85-100% activation)”. Besides, the IC50 in test [1] (setting [2]) is less than 150 nM.
For `Cc1c(-c2ccn(C(C)C)n2)cn2nc(-c3nccn3C)nc(Nc3noc(C4CC4)n3)c12` [Compound 75, 5-Cyclopropyl-N-(6-(1-isopropyl-1H-pyrazol-3-yl)-5-methyl-2-(1-methyl-1H-imidazol-2-yl)pyrrolo[2,1-f][1,2,4]triazin-4-yl)-1,2,4-oxadiazol-3-amine], in the test with Akt phosphorylation, the “% inh of Akt phosphorylation in Panc-1” value was “A* (1-25% activation)”. For the same compound, in test [1] (setting [2]), the IC50 is more than 1000 nM.
As for `COCC1CCN(c2nc(-c3nccn3C)nn3cc(-c4ccn(C(C)C)n4)c(C)c23)C1` (racemic) [Compound 2, rac 6-(1-Isopropyl-1H-pyrazol-3-yl)-4-(3-(methoxymethyl)pyrrolidin-1-yl)-5-methyl-2-(1-methyl-1H-imidazol-2-yl)pyrrolo[2,1-f][1,2,4]triazine], the “% inh of Akt phosphorylation in Panc-1” value with Akt phosphorylation was “C* (46-84% activation)”. In addition, in test [1] (setting [2]), the IC50 is more than 1000 nM.
For `Cc1ccn2nc(-c3nccn3C)nc(N)c12.O=C(O)C(F)(F)F` [Compound 37, 5-Methyl-2-(1-methyl-1H-imidazol-2-yl)pyrrolo[2,1-f][1,2,4]triazin-4-amine trifluoroacetic acid salt] the same measures were 0 (0% inhibition) and more than 1000 nM.
Regarding `CCc1nc(Nc2nc(-c3nccn3C)nn3cc(-c4ccn(C(C)C)n4)c(C)c23)nn1C` [Compound 76, N-(5-Ethyl-1-methyl-1H-1,2,4-triazol-3-yl)-6-(1-isopropyl-1H-pyrazol-3-yl)-5-methyl-2-(1-methyl-1H-imidazol-2-yl)pyrrolo[2,1-f][1,2,4]triazin-4-amine], the “% inh of Akt phosphorylation in Panc-1” value in the test on Akt phosphorylation is reported as “D* (85-100% activation)”. In addition, the IC50 in test [1] (setting [2]) is less than 150 nM.
In the case of `COc1cccc(-c2cn3nc(-c4nccn4C)nc(N[C@@H]4CC[C@H](OC)C4)c3c2-c2ccccc2)c1C` (racemic) [Compound 271, rac 6-(3-Methoxy-2-methylphenyl)-N-((1R,3S)-3-methoxycyclopentyl)-2-(1-methyl-1H-imidazol-2-yl)-5-phenylpyrrolo[2,1-f][1,2,4]triazin-4-amine], in the test on Akt phosphorylation, the “% inh of Akt phosphorylation in Panc-1” value is recorded as “D (85-100% inhibition)”. In test [1] (setting [2]), the IC50 was in the range of 150 to 500 nM.
In the case of `COc1ncncc1Nc1nc(-c2nccn2C)nn2cc(-c3ccn(C(C)C)n3)c(C)c12` [Compound 88, 6-(1-Isopropyl-1H-pyrazol-3-yl)-N-(4-methoxypyrimidin-5-yl)-5-methyl-2-(1-methyl-1H-imidazol-2-yl)pyrrolo[2,1-f][1,2,4]triazin-4-amine], the “% inh of Akt phosphorylation in Panc-1” value in the test on Akt phosphorylation was “D* (85-100% activation)”. The IC50 in test [1] (setting [2]) is more than 1000 nM.
For the compound `COc1cccc(-c2cn3nc(-c4nccn4C)nc(N[C@@H]4CC[C@@H](OC)C4)c3c2-c2ccccc2)c1C` (racemic) [Compound 270, rac 6-(3-Methoxy-2-methylphenyl)-N-((1R,3R)-3-methoxycyclopentyl)-2-(1-methyl-1H-imidazol-2-yl)-5-phenylpyrrolo[2,1-f][1,2,4]triazin-4-amine], the “% inh of Akt phosphorylation in Panc-1” value with Akt phosphorylation was “D (85-100% inhibition)”. The IC50 in test [1] (setting [2]) fell in the range of 150 to 500 nM.
Regarding `COCCNc1nc(-c2nccn2C)nn2cc(-c3ccn(C(C)C)n3)c(C)c12` [Compound 5, 6-(1-Isopropyl-1H-pyrazol-3-yl)-N-(2-methoxyethyl)-5-methyl-2-(1-methyl-1H-imidazol-2-yl)pyrrolo[2,1-f][1,2,4]triazin-4-amine], the “% inh of Akt phosphorylation in Panc-1” value in the test with Akt phosphorylation is reported as 0 (0% inhibition). The IC50 in test [1] (setting [2]) was more than 1000 nM.
Turning to `CO[C@H]1CC[C@@H](Nc2nc(-c3nccn3C)nn3cc(-c4ccn(C(C)C)n4)c(-c4ccccc4)c23)C1` (racemic) [Compound 18, rac 6-(1-Isopropyl-1H-pyrazol-3-yl)-N-((1R,3S)-3-methoxycyclopentyl)-2-(1-methyl-1H-imidazol-2-yl)-5-phenylpyrrolo[2,1-f][1,2,4]triazin-4-amine hydrochloride], in the test on Akt phosphorylation, the “% inh of Akt phosphorylation in Panc-1” value is on record as “D* (85-100% activation)”. The IC50 in test [1] (setting [2]) was more than 1000 nM.
As to `COc1cccc(-c2cn3nc(-c4nccn4C)nc(N[C@@H]4CC[C@@H](OC)C4)c3c2-c2ccccc2)c1Cl.Cl` (racemic) [Compound 34, rac 6-(2-Chloro-3-methoxyphenyl)-N-((1R,3R)-3-methoxycyclopentyl)-2-(1-methyl-1H-imidazol-2-yl)-5-phenylpyrrolo[2,1-f][1,2,4]triazin-4-amine hydrochloride], the “% inh of Akt phosphorylation in Panc-1” value in the test with Akt phosphorylation is “D (85-100% inhibition)”. In addition, in test [1] (setting [2]), the IC50 lay in the range of 510 to 1000 nM.
For the compound `Cc1c(-c2ccn(C(C)C)n2)cn2nc(-c3nccn3C)nc(Nc3cc4n(n3)CCO4)c12` [Compound 91, N-(6-(1-Isopropyl-1H-pyrazol-3-yl)-5-methyl-2-(1-methyl-1H-imidazol-2-yl)pyrrolo[2,1-f][1,2,4]triazin-4-yl)-2,3-dihydropyrazolo[5,1-b]oxazol-6-amine], in the test with Akt phosphorylation, the “% inh of Akt phosphorylation in Panc-1” value is recorded as “D* (85-100% activation)”. Also, the IC50 is 10 to 50 nM in test [1] (Proliferation assay, MiaPaca-2, read-out: MiaPaca-2 IC50 (nM) Pancreatic) and less than 150 nM in test [1] (setting [2]).
On to `Cc1c(-c2ccn(C(C)C)n2)cn2nc(-c3nccn3C)nc(Nc3cn(C(C)C)nn3)c12` [Compound 78, N-(1-Isopropyl-1H-1,2,3-triazol-4-yl)-6-(1-isopropyl-1H-pyrazol-3-yl)-5-methyl-2-(1-methyl-1H-imidazol-2-yl)pyrrolo[2,1-f][1,2,4]triazin-4-amine], for which the “% inh of Akt phosphorylation in Panc-1” value in the test with Akt phosphorylation is given as “D* (85-100% activation)”. For the same compound, the IC50 in test [1] (setting [2]) was in the range of 150 to 500 nM.
